Experimental data: article PMC6952197, “Harvesting of Prebiotic Fructooligosaccharides by Nonbeneficial Human Gut Bacteria” (mSphere, 2020)

T1: Dorea PTS_EIIBCA (I9 PTS_EIIBCA) (uncultured bacterium, UniProt S6CP27)
T1 construct: full-length single multidomain protein (domains B, C, A; ten predicted transmembrane helices)
T1 sequence (S6CP27 1-643): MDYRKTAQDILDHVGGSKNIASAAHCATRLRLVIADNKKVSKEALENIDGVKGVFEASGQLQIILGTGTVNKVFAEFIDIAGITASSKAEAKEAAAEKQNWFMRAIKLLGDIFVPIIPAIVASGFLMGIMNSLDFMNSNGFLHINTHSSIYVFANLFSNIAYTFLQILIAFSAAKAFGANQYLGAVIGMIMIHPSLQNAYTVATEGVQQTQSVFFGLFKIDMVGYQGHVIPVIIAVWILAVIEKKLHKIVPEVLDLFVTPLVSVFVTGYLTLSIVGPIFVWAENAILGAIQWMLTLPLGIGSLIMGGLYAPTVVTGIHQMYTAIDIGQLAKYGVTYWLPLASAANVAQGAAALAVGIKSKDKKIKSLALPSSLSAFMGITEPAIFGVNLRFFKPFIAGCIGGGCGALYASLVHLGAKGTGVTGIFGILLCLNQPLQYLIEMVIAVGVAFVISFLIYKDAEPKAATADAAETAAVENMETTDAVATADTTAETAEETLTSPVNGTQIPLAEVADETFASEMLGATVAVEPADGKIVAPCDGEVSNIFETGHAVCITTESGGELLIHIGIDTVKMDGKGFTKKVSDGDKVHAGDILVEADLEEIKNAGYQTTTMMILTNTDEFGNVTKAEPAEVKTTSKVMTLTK

B1: Dorea PTS_EIIBCA (I9 PTS_EIIBCA) (uncultured bacterium) (protein)
chain: T1 sequence (S6CP27 1-643)
notes: full-length single multidomain protein (domains B, C, A; ten predicted transmembrane helices)

Columns and labels:
[1] = molecular target: T1, Dorea PTS_EIIBCA (I9 PTS_EIIBCA); experiment: binding saturation on washed crude membranes; unbound kestose by HPAEC-PAD
[2] = substrate: OC[C@H]1O[C@@](CO)(OC[C@@]2(O[C@H]3O[C@H](CO)[C@@H](O)[C@H](O)[C@H]3O)O[C@H](CO)[C@@H](O)[C@@H]2O)[C@@H](O)[C@@H]1O; experiment: uptake saturation in intact E. coli cells; residual kestose by HPAEC-PAD; format: cell-based, uncultured bacterium; conditions: I9min_PTS cells (E. coli EPI100, host EI and HPr/FPr complement), TBS pH 7.0, 37°C, transport
Excerpt: uptake saturation in intact E. coli cells; residual kestose by HPAEC-PAD on Dorea PTS_EIIBCA (I9 PTS_EIIBCA) | The affinity constants of kestose uptake by I9min_PTS cells (Km)

Molecule | Kd [1] [µM] | Km [2] [µM]
OC[C@H]1O[C@@](CO)(OC[C@@]2(O[C@H]3O[C@H](CO)[C@@H](O)[C@H](O)[C@H]3O)O[C@H](CO)[C@@H](O)[C@@H]2O)[C@@H](O)[C@@H]1O [kestose] | 51 ± 12 | 
B1 |  | 266 ± 165
